Data as given in PubChem BioAssay (NCI).
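Values below derive from 48-hour exposures of cells grown in 96-well plates, with endpoints linearly interpolated between the two concentrations bracketing the appropriate inhibition level. The concentration for full growth arrest is given as TGI.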

Legend:
Assay in all cases: DTP human tumour cell line panel, 48 h
[1] = tested on: 786-0 renal
[2] = tested on: A549 NSCLC
[3] = tested on: ACHN renal
[4] = tested on: CCRF-CEM leukemia
[5] = tested on: COLO 205 colon
[6] = tested on: DLD-1 colon
[7] = tested on: DMS 114 small cell lung
[8] = tested on: DMS 273 small cell lung
[9] = tested on: EKVX NSCLC
[10] = tested on: HCC-2998 colon
[11] = tested on: HCT-116 colon
[12] = tested on: HL-60(TB) leukemia
[13] = tested on: HOP-18 NSCLC
[14] = tested on: HOP-62 NSCLC
[15] = tested on: HOP-92 NSCLC
[16] = tested on: HT29 colon
[17] = tested on: IGROV1 ovarian
[18] = tested on: K-562 leukemia
[19] = tested on: KM12 colon
[20] = tested on: KM20L2 colon
[21] = tested on: LOX IMVI melanoma
[22] = tested on: LXFL 529 NSCLC
[23] = tested on: M14 melanoma
[24] = tested on: M19-MEL melanoma
[25] = tested on: MALME-3M melanoma
[26] = tested on: MOLT-4 leukemia
[27] = tested on: NCI-H226 lung
[28] = tested on: NCI-H23 lung
[29] = tested on: NCI-H460 lung
[30] = tested on: NCI-H522 lung
[31] = tested on: OVCAR-3 ovarian
[32] = tested on: OVCAR-8 ovarian
[33] = tested on: RPMI-8226 leukemia
[34] = tested on: RXF 393 renal
[35] = tested on: SF-268 CNS
[36] = tested on: SF-295 CNS
[37] = tested on: SF-539 CNS
[38] = tested on: SK-MEL-2 melanoma
[39] = tested on: SK-MEL-28 melanoma
[40] = tested on: SK-OV-3 ovarian
[41] = tested on: SN12C renal
[42] = tested on: SNB-19 CNS
[43] = tested on: SNB-75 CNS
[44] = tested on: SNB-78 CNS
[45] = tested on: SR leukemia
[46] = tested on: SW-620 colon
[47] = tested on: TK-10 renal
[48] = tested on: U251 CNS
[49] = tested on: UACC-257 melanoma
[50] = tested on: UACC-62 melanoma
[51] = tested on: UO-31 renal
[52] = tested on: XF 498 CNS
[53] = tested on: A498 renal
[54] = tested on: CAKI-1 renal
[55] = tested on: HCT-15 colon
[56] = tested on: OVCAR-4 ovarian
[57] = tested on: OVCAR-5 ovarian
[58] = tested on: RXF-631 renal
[59] = tested on: SK-MEL-5 melanoma

Compound: O=C(CSc1nc(-c2ccccc2)c(-c2ccccc2)[nH]1)N/N=C/c1ccc(O)cc1
- TGI [1]: 54.8 µM
- TGI [2]: 69.5 µM
- TGI [3]: 55.9 µM
- TGI [4]: > 100 µM
- TGI [5]: 35.1 µM
- TGI [6]: > 100 µM
- TGI [7]: 57.5 µM
- TGI [8]: 48.3 µM
- TGI [9]: 84.4 µM
- TGI [10]: 61.1 µM
- TGI [11]: 63.2 µM
- TGI [12]: 62.3 µM
- TGI [13]: > 100 µM
- TGI [14]: 46.5 µM
- TGI [15]: 84.9 µM
- TGI [16]: 37.1 µM
- TGI [17]: 95.7 µM
- TGI [18]: > 100 µM
- TGI [19]: 55.4 µM
- TGI [20]: 55.8 µM
- TGI [21]: 43 µM
- TGI [22]: 99.5 µM
- TGI [23]: 40.6 µM
- TGI [24]: 51 µM
- TGI [25]: 52.5 µM
- TGI [26]: 70.1 µM
- TGI [27]: 82 µM
- TGI [28]: 84.3 µM
- TGI [29]: 44.8 µM
- TGI [30]: 48.6 µM
- TGI [31]: 48.4 µM
- TGI [32]: 48 µM
- TGI [33]: 60.6 µM
- TGI [34]: 61.4 µM
- TGI [35]: 88.5 µM
- TGI [36]: 57.4 µM
- TGI [37]: 40.5 µM
- TGI [38]: 67.2 µM
- TGI [39]: > 100 µM
- TGI [40]: 65.2 µM
- TGI [41]: 66.7 µM
- TGI [42]: > 100 µM
- TGI [43]: 52.7 µM
- TGI [44]: > 100 µM
- TGI [45]: > 100 µM
- TGI [46]: > 100 µM
- TGI [47]: 72.3 µM
- TGI [48]: 49 µM
- TGI [49]: > 100 µM
- TGI [50]: 54.9 µM
- TGI [51]: 93.2 µM
- TGI [52]: 99.6 µM

Compound: CCOC(=O)C(=O)CC1=Nc2ccccc2SC(c2cccc(C)c2)C1 (configuration not stated)
- TGI [1]: 32.4 µM
- TGI [53]: 33 µM
- TGI [2]: 50.8 µM
- TGI [3]: 30.3 µM
- TGI [54]: 54 µM
- TGI [4]: 63.1 µM
- TGI [6]: 34.1 µM
- TGI [7]: 35 µM
- TGI [8]: 37.9 µM
- TGI [9]: 40.4 µM
- TGI [10]: 31.3 µM
- TGI [11]: 27.8 µM
- TGI [55]: 35.7 µM
- TGI [14]: 49.4 µM
- TGI [15]: 32 µM
- TGI [16]: 29.8 µM
- TGI [17]: 35.7 µM
- TGI [18]: 57.6 µM
- TGI [19]: 30.9 µM
- TGI [20]: 32.2 µM
- TGI [22]: 31.9 µM
- TGI [23]: 35.3 µM
- TGI [24]: 40.9 µM
- TGI [25]: 31 µM
- TGI [26]: 47.9 µM
- TGI [27]: 32.5 µM
- TGI [28]: 32 µM
- TGI [29]: 36.4 µM
- TGI [30]: 32.8 µM
- TGI [31]: 34 µM
- TGI [56]: 32 µM
- TGI [57]: 31.8 µM
- TGI [32]: 25.1 µM
- TGI [33]: 67.3 µM
- TGI [58]: 29.4 µM
- TGI [35]: 32.2 µM
- TGI [37]: 35.1 µM
- TGI [38]: 30.5 µM
- TGI [39]: 29.3 µM
- TGI [59]: 36.2 µM
- TGI [41]: 31.2 µM
- TGI [42]: 34.6 µM
- TGI [43]: 38.7 µM
- TGI [44]: 32.4 µM
- TGI [45]: 60.5 µM
- TGI [46]: 43.4 µM
- TGI [48]: 31 µM
- TGI [49]: 33.2 µM
- TGI [50]: 31.9 µM
- TGI [51]: 28.7 µM
